Literature values in patent publication US8293845B2, “Irritation mitigating polymers and uses therefor” (priority 2006, dated 2012).

Conditions: from Schoenberg, Household & Personal Products Industry 1979

For `CCCCCCCCCCCCOS(=O)(=O)[O-].[Na+]` [sodium lauryl sulfate], the eye irritation is given as “causes significant eye irritation”.
